Results reported in patent US10669268B2, “Bicyclic derivatives” (Hoffmann-La Roche Inc., priority 2012, dated 2020).

Molecular target: ATX (human His-tagged) (Homo sapiens (Human), UniProt Q13822)
Assay: Human ATX enzyme inhibition assay (fluorescence quenching, MR121 substrate)
Format: biochemical
Conditions: 30 nM ATX, 1 μM MR121 substrate, 30° C., pH 8.0
Procedure: Human ATX Enzyme Inhibition Assay
Assay working solutions were made as follows:
Assay buffer (50 mM Tris-HCl, 140 mM NaCl, 5 mM KCl, 1 mM CaCl2, 1 mM MgCl2, 0.01% Triton-X-100, pH 8.0;
MR121 substrate solution: MR121 substrate stock solution (800 μM MR121 substrate in DMSO), diluted to 2-5× final concentration in assay buffer.
10 μL of MR121 substrate solution was added (1 μM final concentration), mixed 30 times and then incubated for 15 minutes at 30° C.

| SMILES | IC50 |
| --- | --- |
| O=C(/C=C/c1ccc(OC(F)(F)F)cc1)N1CC[C@@H]2CN(C(=O)N3CCc4ncccc4C3)C[C@@H]2CC1 [Example 8.06] | 192 nM |
| O=C1NC2CCC(C(=O)N3CC4CCN(C(=O)/C=C/c5ccc(OC(F)(F)F)cc5)CCC4C3)CC2O1 (stereo in doubt) [Example 1.16, (3aSR,6SR,7aSR)-6-{(3aR,8aS)-6-[(E)-3-(4-trifluoromethoxy-phenyl)-acryloyl]-octahydro-pyrrolo[3,4-d]azepine-2-carbonyl}-hexahydro-benzooxazol-2-one] | 382 nM |
| O=C(OCc1ccc(C(F)(F)F)cc1)N1C[C@@H]2CN(C(=O)[C@@H]3CCc4[nH]nnc4C3)C[C@H]2C1 [Example 4.59, (3aS,6aS)-5-((R)-4,5,6,7-tetrahydro-1H-benzotriazole-5-carbonyl)-hexahydro-pyrrolo[3,4-c]pyrrole-2-carboxylic acid 4-trifluoromethyl-benzyl ester] | 9 nM |
| O=C(OCc1ccc(OC(F)(F)F)cc1)N1C[C@@H]2CN(C(=O)c3cc4nn[nH]c4cn3)C[C@H]2C1 [Example 1.51, (3aS,6aS)-5-(3H-[1,2,3]triazolo[4,5-c]pyridine-6-carbonyl)-hexahydro-pyrrolo[3,4-c]pyrrole-2-carboxylic acid 4-trifluoromethoxy-benzyl ester] | 41 nM |
| N#Cc1cc(F)cc(COC(=O)N2C[C@@H]3CN(C(=O)c4ccc5[nH]nnc5c4)C[C@@H]3C2)c1 [Example 4.29, (3aR,6aS)-3-cyano-5-fluorobenzyl 5-(1H-benzo[d][1,2,3]triazole-5-carbonyl)hexahydropyrrolo[3,4-c]pyrrole-2(1H)-carboxylate] | 643 nM |
| CS(=O)(=O)c1cc(Cl)cc(COC(=O)N2C[C@@H]3CN(C(=O)N4CCc5[nH]nnc5C4)C[C@H]3C2)c1 [Example 4.34, (3aS,6aS)-5-(1,4,6,7-tetrahydro-[1,2,3]triazolo[4,5-c]pyridine-5-carbonyl)-hexahydro-pyrrolo[3,4-c]pyrrole-2-carboxylic acid 3-chloro-5-methanesulfonyl-benzyl ester] | 19 nM |
| O=C(OCc1cc(Cl)cc(Cl)c1)N1C[C@@H]2CCN(C(=O)c3ccc4[nH]nnc4c3)C[C@@H]2C1 (relative stereo) [Example 4.08, cis-3,5-dichlorobenzyl 5-(1H-benzo[d][1,2,3]triazole-5-carbonyl)hexahydro-1H-pyrrolo[3,4-c]pyridine-2(3H)-carboxylate] | 47 nM |
| CC(C)c1ccccc1CCC(=O)N1CC[C@@H]2CN(C(=O)c3ccc4[nH]nnc4c3)C[C@@H]2CC1 [Example 17.08, 1-[(3aS,8aR)-2-(1H-benzotriazole-5-carbonyl)-octahydro-pyrrolo[3,4-d]azepin-6-yl]-3-(2-isopropyl-phenyl)-propan-1-one] | 16 nM |

More lines, now with the values ahead:

| IC50 | SMILES |
| --- | --- |
| 2 nM | COc1cc(CCC(=O)N2C[C@@H]3CN(C(=O)c4ccc5[nH]nnc5c4)C[C@H]3C2)cc(OC(F)(F)F)c1 [Example 17.20, 1-[(3aR,6aR)-5-(1H-benzotriazole-5-carbonyl)-1,3,3a,4,6,6a-hexahydropyrrolo[3,4-c]pyrrol-2-yl]-3-[3-methoxy-5-(trifluoromethoxy)phenyl]propan-1-one] |
| 5 nM | Cc1cc(OCC(=O)N2C[C@@H]3CN(C(=O)c4ccc5[nH]nnc5c4)C[C@H]3C2)c(C(C)C)cc1C#N [Example 19.05, 4-{2-[(3aS,6aS)-5-(1H-benzotriazole-5-carbonyl)-hexahydro-pyrrolo[3,4-c]pyrrol-2-yl]-2-oxo-ethoxy}-5-isopropyl-2-methyl-benzonitrile] |
| 7 nM | CC(C)Oc1cc(C(=O)N2C[C@@H]3CN(C(=O)[C@@H]4CCc5[nH]nnc5C4)C[C@H]3C2)cc2ccccc12 [Example 19.24, [(3aS,6aS)-5-[(5R)-4,5,6,7-tetrahydro-1H-benzotriazole-5-carbonyl]-1,3,3a,4,6,6a-hexahydropyrrolo[3,4-c]pyrrol-2-yl]-(4-propan-2-yloxynaphthalen-2-yl)methanone] |
